In patent US20110152271A1, “Compositions and methods for ophthalmic delivery of nasal decongestants” (priority 2009, published 2011):
Read-outs that look alike come from different tables or passages of the source.

Key:
[1] = 0.025% brimonidine in one eye
Description: Eight (8) human subjects were administered 0.025% brimonidine. The subjects were administered with the drug in one eye and then asked to assess themselves in the mirror to see if they perceived a difference in conjunctival hyperemia between eyes. The drug was administered around 9:15 am. The assessments were made 5 minutes after the administration and 4 hours after the administration. After the four hours assessment, the drug was re-administered.

[2] = Description: 1 drop of 0.025% brimonidine was applied to the right eye of each patient. […] Then, the breathing function was measured in each nostril separately 10 minutes later. Then, 1 dose of 0.0045% brimonidine nasal spray was applied into the left nostril and the ease of breathing was again measured in each nostril separately 10 minutes later.
[3] = 0.025% brimonidine topically to one eye; 10 minutes; 11 individuals
Description: 11 individuals were asked to assess the patency of each nostril by alternately closing one. They were then given 0.025% brimonidine topically to one randomly selected eye. After 10 minutes each nostril was alternately closed to assess the patency of the contralateral nostril and compare to its patency before applying brimonidine to the eye. […] Nasal patency refers to a basic evaluation of the degree to which a nostril is open (i.e. unblocked).

## Brc1c(NC2=NCCN2)ccc2nccnc12 [brimonidine]
[1]; 5 min assessment
  subjects reporting reduced hyperemia and increased whiteness in the treated eye: eight of eight
[1]; four hour assessment
  subjects reporting reduced hyperemia and increased whiteness in the treated eye: eight of eight
  subjects reporting reduced nasal congestion in the nostril on the same side as the treated eye: six of eight
[2]; 1 drop of 0.025% brimonidine to the right eye
  whiteness of the treated right eye: In all patients, the right eye has become whiter
[2]; 1 drop of 0.025% brimonidine to the right eye, 10 minutes later, three subjects with records
  patients reporting reduced nasal congestion in the right nostril: all three patients reported reducing nasal congestion in the right nostril
[2]; after eye drop, 1 dose of 0.0045% brimonidine nasal spray into the left nostril, 10 minutes later, three subjects with records
  patients reporting reduced nasal congestion in both nostrils: all three patients reported reduced nasal congestion in the both nostrils
[3]
  increase in patency in the contralateral nostril: not in the contralateral
  patients with noticeable increase in patency in the ipsilateral nostril: 9 of the 11
